In test [1] the test system is RKO (RKOp27) human colon adenocarcinoma cells. The experiment in a line: Alamar Blue cell viability assay, anti-proliferative/cytotoxic activity on proliferating RKO subclones. Conditions: RKOp27, 72 h, RKO p27 uninduced (proliferating) cells, value = class bound given in Table A, read-out: −logIC50 RKO p27 uninduced (proliferating) (converted). The test is classed as cell-based. The gist of the method: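 Alamar Blue fluorescence (ex 544, em 590 nm) after 72 h compound exposure at 37 °C, 5% CO2, normalised to untreated controls set at 100%. Cells were seeded at 5000 per well and dosed 24 h later with serial semi-logarithmic dilutions in 10% FCS DMEM, four replicates each. −log IC50 [mol/l] was derived from concentration-effect curves.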
On the technique in general: The colour change of resazurin is a common sign of viable cells or microbes.

Test [2] concerns subclones of RKO colon adenocarcinoma cells (RKOp27 or RKOp21) arrested by Ponasterone A. In words: Alamar Blue cell viability assay, cell cycle specific mode of action: cells arrested by ectopic p27Kip1 induced by Ponasterone A versus proliferating cells. Conditions: Homo sapiens, RKO p27 induced (arrested) cells, 10 μM Ponasterone A, 72 hours, value = class bound given in Table A, read-out: −logIC50 RKO p27 induced (arrested) (converted). The class given is cell-based. The gist of the method:
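Viability of proliferating versus Ponasterone A (10 μM)-arrested RKOp27/RKOp21 cells after 72 h compound exposure at 37° C, in quadruplicate. Read-out is Alamar Blue fluorescence (544/590 nm) normalised to untreated cells = 100%; values as −log IC50.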

In the case of `Cc1ccncc1/C=C/C(=O)Nc1sc2c(c1C#N)CCC(COC(=O)N1CCC(O)CC1)C2` (centres unmarked) [Example 133, 4-Hydroxy-piperidine-1-carboxylic acid 3-cyano-2-[(E)-3-(4-methyl-pyridin-3-yl)-allanoylamino]-4,5,6,7-tetrahydro-benzo[b]thiophen-6-ylmethyl ester], the figures for the IC50 in test [1] and in test [2] were at most 501 nM and at least 100000 nM, respectively.

On to `Cc1cc(CNC(=O)OCC2CCc3c(sc(NC(=O)/C=C/c4cnccc4C)c3C#N)C2)no1` (centres unmarked) [Example 134, (5-Methyl-isoxazol-3-ylmethyl)-carbamic acid 3-cyano-2-[(E)-3-(4-methyl-pyridin-3-yl)-allanoylamino]-4,5,6,7-tetrahydro-benzo[b]thiophen-6-ylmethyl ester], for which the IC50 in test [1] was at most 501 nM; in test [2] it was at least 100000 nM.

As for `Cc1ccncc1/C=C/C(=O)Nc1sc2c(c1C#N)CCC(COC(=O)N1CCC[C@H]1CO)C2` (stereo partly drawn) [Example 135, 2-(S)-(Hydroxymethyl) pyrrolidine-1-carbamic acid 3-cyano-2-[(E)-3-(4-methyl-pyridin-3-yl)-allanoylamino]-4,5,6,7-tetrahydro-benzo[b]thiophen-6-ylmethyl ester], the results for the IC50 in test [1] and in test [2] were 501 to 2000 nM and at least 100000 nM, respectively.

Turning to `COC(=O)[C@@H]1CCCN1C(=O)OCC1CCc2c(sc(NC(=O)/C=C/c3cccnc3)c2C#N)C1` (stereo partly drawn) [Example 136, 2-(S)-Pyrrolidine-1,2-dicarboxylic acid 1-[3-cyano-2-((E)-3-pyridin-3-yl-allanoylamino)-4,5,6,7-tetrahydro-benzo[b]thiophen-6-ylmethyl] ester 2-methyl ester], the IC50 in test [1] was 501 to 2000 nM; in test [2], at least 100000 nM.

As to `CC(C)CN(C)C(=O)OCC1CCc2c(sc(NC(=O)/C=C/c3cccnc3)c2C#N)C1` (centres unmarked) [Example 137, Isobutyl-methyl-carbamic acid 3-cyano-2-((E)-3-pyridin-3-yl-allanoylamino)-4,5,6,7-tetrahydro-benzo[b]thiophen-6-ylmethyl ester], the IC50 in test [1] is at most 501 nM; in test [2], at least 100000 nM.

In the case of `CN(C(=O)OCC1CCc2c(sc(NC(=O)/C=C/c3cccnc3)c2C#N)C1)C1CCCC1` (centres unmarked) [Example 138, Cyclopentyl-methyl-carbamic acid 3-cyano-2-((E)-3-pyridin-3-yl-allanoylamino)-4,5,6,7-tetrahydro-benzo[b]thiophen-6-ylmethyl ester], the IC50 in test [1] was 501 to 2000 nM; in test [2] it was at least 100000 nM.

With `N#Cc1c(NC(=O)/C=C/c2cccnc2)sc2c1CCC(OC(=O)NC1CCC1)C2` (centres unmarked) [Example 139, Cyclobutyl-carbamic acid 3-cyano-2-((E)-3-pyridin-3-yl-allanoylamino)-4,5,6,7-tetrahydro-benzo[b]thiophen-6-yl ester], the IC50 in test [1] is at most 501 nM; in test [2], at least 100000 nM.

Consider `CN(C)c1ncc(CNC(=O)OCC2CCc3c(sc(NC(=O)/C=C/c4cccnc4)c3C#N)C2)s1` (centres unmarked) [Example 140, (2-Dimethyl-amino-thiazol-5-ylmethyl)-carbamic acid 3-cyano-2-((E)-3-pyridin-3-yl-allanoylamino)-4,5,6,7-tetrahydro-benzo[b]thiophen-6-ylmethyl ester], for which the IC50 was at most 501 nM in test [1] and at least 100000 nM in test [2].

For the molecule `N#Cc1c(NC(=O)/C=C/c2cccnc2)sc2c1CCC(COC(=O)n1cccc1)C2` (centres unmarked) [Example 141, Pyrrole-1-carboxylic acid 3-cyano-2-((E)-3-pyridin-3-yl-allanoylamino)-4,5,6,7-tetrahydro-benzo[b]thiophen-6-ylmethyl ester], the IC50 in test [1] is 501 to 2000 nM; in test [2], at least 100000 nM.

`N#Cc1c(NC(=O)/C=C/c2cccnc2)sc2c1CCC(OC(=O)NC1CCCCC1)C2` (centres unmarked) [Example 142, Cyclohexyl-carbamic acid 3-cyano-2-((E)-3-pyridin-3-yl-allanoylamino)-4,5,6,7-tetrahydro-benzo[b]thiophen-6-yl ester]: the IC50 in test [1] is 501 to 2000 nM; in test [2], at least 100000 nM.

In the case of `N#Cc1c(NC(=O)/C=C/c2cccnc2)sc2c1CCC(COC(=O)N1CC[C@H](O)C1)C2` (stereo partly drawn) [Example 144, (S)-3-Hydroxy-pyrrolidine-1-carboxylic acid 3-cyano-2-((E)-3-pyridin-3-yl-allanoylamino)-4,5,6,7-tetrahydro-benzo[b]thiophen-6-ylmethyl ester], the IC50 was at most 501 nM in test [1] and at least 100000 nM in test [2].

With `N#Cc1c(NC(=O)/C=C/c2cccnc2)sc2c1CCC(COC(=O)N1CC[C@@H](O)C1)C2` (stereo partly drawn) [Example 145, (R)-3-Hydroxy-pyrrolidine-1-carboxylic acid 3-cyano-2-((E)-3-pyridin-3-yl-allanoylamino)-4,5,6,7-tetrahydro-benzo[b]thiophen-6-ylmethyl ester], the figures for the IC50 in test [1] and in test [2] were at most 501 nM and at least 100000 nM, respectively.

Take `N#Cc1c(NC(=O)/C=C/c2cccnc2)sc2c1CCC(OC(=O)N1CC[C@H](O)C1)C2` (stereo partly drawn) [Example 146, (S)-3-Hydroxy-pyrrolidine-1-carboxylic acid 3-cyano-2-((E)-3-pyridin-3-yl-allanoylamino)-4,5,6,7-tetrahydro-benzo[b]thiophen-6-yl ester]: the IC50 in test [1] is at most 501 nM; in test [2] it was at least 100000 nM.

For the molecule `N#Cc1c(NC(=O)/C=C/c2cccnc2)sc2c1CCC(OC(=O)N1CC[C@@H](O)C1)C2` (stereo partly drawn) [Example 147, (R)-3-Hydroxy-pyrrolidine-1-carboxylic acid 3-cyano-2-((E)-3-pyridin-3-yl-allanoylamino)-4,5,6,7-tetrahydro-benzo[b]thiophen-6-yl ester], the IC50 in test [1] was 501 to 2000 nM; in test [2], at least 100000 nM.

On to `N#Cc1c(NC(=O)/C=C/c2cccnc2)sc2c1CCC(OC(=O)NC1COC1)C2` (centres unmarked) [Example 148, Oxetan-3-yl-carbamicacid 3-cyano-2-((E)-3-pyridin-3-yl-allanoylamino)-4,5,6,7-tetrahydro-benzo[b]thiophen-6-yl ester], for which the IC50 in test [1] was 501 to 2000 nM; in test [2], at least 100000 nM.

With `N#Cc1c(NC(=O)/C=C/c2cccnc2)sc2c1CCC(COC(=O)NC1COC1)C2` (centres unmarked) [Example 149, Oxetan-3-yl-carbamic acid 3-cyano-2-((E)-3-pyridin-3-yl-allanoylamino)-4,5,6,7-tetrahydro-benzo[b]thiophen-6-ylmethyl ester], the IC50 is 501 to 2000 nM in test [1] and at least 100000 nM in test [2].

With `CCOC(=O)OCC1CCc2c(sc(NC(=O)CCc3ccccc3OCC)c2C#N)C1` (centres unmarked) [Example 151, Carbonic acid 3-cyano-2-[3-(2-ethoxy-phenyl)-propanoylamino]-4,5,6,7-tetrahydro-benzo[b]thiophen-6-ylmethyl ester ethyl ester], the IC50 in test [1] is at most 501 nM; in test [2], at least 100000 nM.

`CCOC(=O)OC1CCc2c(sc(NC(=O)CCc3ccccc3OCC)c2C#N)C1` (centres unmarked) [Example 152, Carbonic acid 3-cyano-2-[3-(2-ethoxy-phenyl)-propanoylamino]-4,5,6,7-tetrahydro-benzo[b]thiophen-6-yl ester ethyl ester]: the IC50 in test [1] was at most 501 nM; in test [2] it was at least 100000 nM.

Take `CCNC(=O)OC1CCc2c(sc(NC(=O)CCc3ccccc3OCC)c2C#N)C1` (centres unmarked) [Example 153, Ethyl-carbamic acid 3-cyano-2-[3-(2-ethoxy-phenyl)-propanoylamino]-4,5,6,7-tetrahydro-benzo[b]thiophen-6-yl ester]: the IC50 in test [1] is at most 501 nM; in test [2] it was at least 10000 nM.

The values are drawn from patent US20110044938A1 (NYCOMED GMBH, priority 2006, published 2011).
